Test results published in patent US9127040B2, “Regulation of sodium channels by PLUNC proteins” (The University of North Carolina at Chapel Hill, priority 2011, dated 2015).

T1: αβγENaC (Rattus norvegicus, UniProt P37089+P37090+P37091)
T1 construct: expressed in transfected cells; host or cells: Xenopus laevis oocytes (cRNA injection)
T1 sequence (P37089 1-698): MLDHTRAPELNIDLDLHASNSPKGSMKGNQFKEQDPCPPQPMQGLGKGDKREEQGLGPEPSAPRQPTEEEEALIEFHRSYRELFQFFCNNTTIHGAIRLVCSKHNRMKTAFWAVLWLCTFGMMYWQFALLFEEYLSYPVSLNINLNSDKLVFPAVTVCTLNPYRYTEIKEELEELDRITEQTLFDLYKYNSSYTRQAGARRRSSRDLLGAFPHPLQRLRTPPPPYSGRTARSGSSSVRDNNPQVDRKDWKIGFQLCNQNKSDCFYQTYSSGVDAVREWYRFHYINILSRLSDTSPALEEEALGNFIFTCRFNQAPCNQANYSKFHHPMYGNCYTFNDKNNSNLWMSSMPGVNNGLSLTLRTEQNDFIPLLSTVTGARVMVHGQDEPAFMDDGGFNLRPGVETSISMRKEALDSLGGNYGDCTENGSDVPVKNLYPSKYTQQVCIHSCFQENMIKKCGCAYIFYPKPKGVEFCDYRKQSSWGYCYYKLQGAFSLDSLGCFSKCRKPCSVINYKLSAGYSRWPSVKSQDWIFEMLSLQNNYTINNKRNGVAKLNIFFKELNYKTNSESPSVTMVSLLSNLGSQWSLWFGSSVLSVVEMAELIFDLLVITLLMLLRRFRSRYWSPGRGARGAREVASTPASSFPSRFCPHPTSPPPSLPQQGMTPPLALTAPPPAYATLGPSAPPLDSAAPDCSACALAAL
T1 sequence (P37090 1-638): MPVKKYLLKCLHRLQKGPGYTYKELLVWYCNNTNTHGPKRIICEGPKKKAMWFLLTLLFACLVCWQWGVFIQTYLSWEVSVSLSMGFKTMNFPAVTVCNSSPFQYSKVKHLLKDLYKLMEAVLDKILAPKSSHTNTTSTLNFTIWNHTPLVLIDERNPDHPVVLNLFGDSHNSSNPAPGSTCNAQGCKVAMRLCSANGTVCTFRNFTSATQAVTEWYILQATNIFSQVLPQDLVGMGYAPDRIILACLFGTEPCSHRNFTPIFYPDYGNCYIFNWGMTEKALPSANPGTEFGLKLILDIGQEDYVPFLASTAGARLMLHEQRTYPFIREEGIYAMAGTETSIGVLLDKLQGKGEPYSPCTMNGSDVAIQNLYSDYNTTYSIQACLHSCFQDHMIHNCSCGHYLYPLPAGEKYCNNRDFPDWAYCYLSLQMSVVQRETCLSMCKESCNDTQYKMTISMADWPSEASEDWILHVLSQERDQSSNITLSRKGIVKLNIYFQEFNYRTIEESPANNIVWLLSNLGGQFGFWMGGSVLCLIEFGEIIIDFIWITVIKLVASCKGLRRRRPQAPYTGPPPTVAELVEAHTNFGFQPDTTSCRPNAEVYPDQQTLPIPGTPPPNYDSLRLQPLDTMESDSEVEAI
T1 sequence (P37091 1-650): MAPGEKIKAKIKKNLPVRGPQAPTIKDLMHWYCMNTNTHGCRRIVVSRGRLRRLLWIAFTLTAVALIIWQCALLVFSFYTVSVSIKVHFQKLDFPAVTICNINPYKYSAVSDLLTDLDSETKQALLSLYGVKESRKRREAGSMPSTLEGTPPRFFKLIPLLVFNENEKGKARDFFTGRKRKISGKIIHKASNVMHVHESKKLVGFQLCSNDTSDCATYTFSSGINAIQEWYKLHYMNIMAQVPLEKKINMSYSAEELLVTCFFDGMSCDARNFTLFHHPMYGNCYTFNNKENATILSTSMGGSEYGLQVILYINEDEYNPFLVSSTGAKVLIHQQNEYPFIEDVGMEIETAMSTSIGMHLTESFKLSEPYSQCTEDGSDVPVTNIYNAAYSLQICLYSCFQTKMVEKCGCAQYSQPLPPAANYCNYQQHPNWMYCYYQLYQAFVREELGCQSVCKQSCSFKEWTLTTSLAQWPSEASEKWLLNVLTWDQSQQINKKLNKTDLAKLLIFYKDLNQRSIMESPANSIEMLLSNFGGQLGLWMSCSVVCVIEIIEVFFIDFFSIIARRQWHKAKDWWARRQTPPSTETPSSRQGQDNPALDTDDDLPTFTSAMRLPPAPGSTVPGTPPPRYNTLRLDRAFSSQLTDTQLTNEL

B1: LPLUNC1: long PLUNC family member co-expressed in Xenopus oocytes (protein)
chain: TLSPTAVLILGPKVIKEKLTQELKDHNATSILQQLPLLSAMREKPAGGIPVLGSLVNTVLKHIIWLKVITANILQLQVKPSANDQELLVKIPLDMVAGFNTPLVKTIVEFHMTTEAQATIRMDTSASGPTRLVLSDCATSHGSLRIQLLHKLSFLVNALAKQVMNLLVPSLPNLVKNQLCPVIEASFNGMYADLLQLVKVPISLSIDRLEFDLLYPAIKGDTIQLYLGAKLLDSQGKVTKWFNNSAASLTMPTLDNIPFSLIVSQDVVKAAVAAVLSPEEFMVLLDSVLPESAHRLKSSIGLINEKAADKLGSTQIVKILTQDTPEFFIDQGHAKVAQLIVLEVFPSSEALRPLFTLGIEASSEAQFYTKGDQLILNLNNISSDRIQLMNSGIGWFQPDVLKNIITEIIHSILLPNQNGKLRSGVPVSLVKALGFEAAESSLTKDALVLTPASLWKPSSPVSQ
B2: SPLUNC2: human SPLUNC2 (SEQ ID NO:2), short PLUNC family protein co-expressed in oocytes (protein, listed as Homo sapiens)
chain: MLQLWKLVLLCGVLTGTSESLLDNLGNDLSNVVDKLEPVLHEGLETVDNTLKGILEKLKVDLGVLQKSSAWQLAKQKAQEAEKLLNNVISKLLPTNTDIFGLKISNSLILDVKAEPIDDGKGLNLSFPVTANVTVAGPIIGQIINLKASLDLLTAVTIETDPQTHQPVAVLGECASDPTSISLSLLDKHSQIINKFVNSVINTLKSTVSSLLQKEICPLIRIFIHSLDVNVIQQVVDNPQHKTQLQTLI

What was measured:
NL HBECs = experiment: ASL height by confocal microscopy in normal lung (NL) HBECs; assay type: cell-based, human; settings: Ringer with 50 mM NaCl exchanged for 100 mM POPSO; 3 h
Procedure: To label airway surface liquid, Ringer containing Texas Red-dextran (2 mg/ml; Invitrogen) was added to human bronchial epithelial culture mucosal surfaces. Perfluorocarbon was added mucosally to prevent evaporation of the airway surface liquid and the culture placed in a chamber containing 100 μl Ringer on the stage of a Leica SP5 confocal microscope with a 63× glycerol immersion objective. 5 points per culture were scanned and an average airway surface liquid height determined. For confocal microscopy human bronchial epithelial cultures were bathed serosally in a modified Ringer solution containing (mM): 116 NaCl, 10 NaHCO3, 5.1 KCl, 1.2 CaCl2, 1.2 MgCl2, 20 TES, 10 glucose, pH 7.4). At all other times, human bronchial epithelial cultures were maintained in a modified BEGM growth medium which contained 24 mM NaHCO3 gassed with 5% CO2.
To label the ASL, PBS containing 10 kDa Rhodamine dextran (0.2-2 mg/mL; Invitrogen, Carlsbad, Calif., USA) was added to HBEC mucosal surfaces as previously described (Tarran et al., Mol. Cell 8:149 (2001)). When added, peptides with or without 100 nM neutrophil elastase, 1 U/mL aprotinin, activated neutrophil supernatant (ANS) (Haynes et al., Am. J. Physiol. Heart Circ. Physiol. 294:H379 (2008)) or 10 μM sivelestat (Sigma-Aldrich, St Louis, Mo., USA) were added to the mucosal surface along with the Rhodamine dextran. Bumetanide (100 μM) was added to the serosal solution.

CF HBECs = settings: Ringer with 50 mM NaCl exchanged for 100 mM POPSO; 3 h
αβγENaC = molecular target: T1, αβγENaC; experiment: Amiloride-sensitive whole cell current, two electrode voltage clamp, Xenopus laevis oocytes expressing αβγENaC; assay type: cell-based; settings: PLUNC family member co-expressed with α,β,γ ENaC
Procedure: Xenopus laevis oocytes were harvested and injected as described (Donaldson, et al., J. Biol. Chem. 277:8338 (2002)). Defolliculated healthy stage V-VI oocytes were injected with 0.3 ng of CRNA of each ENaC subunit. Injected oocytes were kept in modified Barth's saline (in mM: 88 NaCl, 1 KCl, 2.4 NaHCO3, 0.3 Ca(NO3)2, 0.41 CaCl2, 0.82 MgSO4, and 15 HEPES, adjusted to pH 7.35 with Tris). Oocytes were studied 24 hr after injection using the two electrode voltage clamp technique as previously described (Donaldson, et al., J. Biol. Chem. 277:8338 (2002)). Oocytes were clamped at a holding potential of −60 mV. The change in amiloride-sensitive whole cell current as an indicator of ENaC activity was determined by subtracting the corresponding current value measured in the presence of 10 μM amiloride from that measured before the application of amiloride. Where appropriate, oocytes were incubated with G22-A39 or ABC for 1 h prior to recording. In some experiments β-ENaC^S518C was used which forms ENaCs that are locked into an open probability near 1.0 by exposure to the sulthydral reactive reagent [2-(Trimethyl-ammonium)ethyl]methanethiosulphonate bromide (MTSET). MTSET was added at a concentration of 1 mM to the oocyte bath as previously described (Snyder, J. Clin. Invest. 105: 45 (2000)).

Molecule | NL ASL height (NL HBECs) | CF ASL height (CF HBECs) | amiloride-sensitive ENaC current relative to control, co-expression (αβγENaC)
O=S(=O)(O)CC(O)CN1CCN(CC(O)CS(=O)(=O)O)CC1 (stereo not shown) [POPSO, reference compound] | no effect | significantly elevated | 
B1 |  |  | no significant ENaC current reduction
B2 |  |  | borderline significance
